In assay [1] the target is T1, Histone-lysine N-methyltransferase NSD2 (Homo sapiens, UniProt O96028).
T1 sequence (O96028 whole entry): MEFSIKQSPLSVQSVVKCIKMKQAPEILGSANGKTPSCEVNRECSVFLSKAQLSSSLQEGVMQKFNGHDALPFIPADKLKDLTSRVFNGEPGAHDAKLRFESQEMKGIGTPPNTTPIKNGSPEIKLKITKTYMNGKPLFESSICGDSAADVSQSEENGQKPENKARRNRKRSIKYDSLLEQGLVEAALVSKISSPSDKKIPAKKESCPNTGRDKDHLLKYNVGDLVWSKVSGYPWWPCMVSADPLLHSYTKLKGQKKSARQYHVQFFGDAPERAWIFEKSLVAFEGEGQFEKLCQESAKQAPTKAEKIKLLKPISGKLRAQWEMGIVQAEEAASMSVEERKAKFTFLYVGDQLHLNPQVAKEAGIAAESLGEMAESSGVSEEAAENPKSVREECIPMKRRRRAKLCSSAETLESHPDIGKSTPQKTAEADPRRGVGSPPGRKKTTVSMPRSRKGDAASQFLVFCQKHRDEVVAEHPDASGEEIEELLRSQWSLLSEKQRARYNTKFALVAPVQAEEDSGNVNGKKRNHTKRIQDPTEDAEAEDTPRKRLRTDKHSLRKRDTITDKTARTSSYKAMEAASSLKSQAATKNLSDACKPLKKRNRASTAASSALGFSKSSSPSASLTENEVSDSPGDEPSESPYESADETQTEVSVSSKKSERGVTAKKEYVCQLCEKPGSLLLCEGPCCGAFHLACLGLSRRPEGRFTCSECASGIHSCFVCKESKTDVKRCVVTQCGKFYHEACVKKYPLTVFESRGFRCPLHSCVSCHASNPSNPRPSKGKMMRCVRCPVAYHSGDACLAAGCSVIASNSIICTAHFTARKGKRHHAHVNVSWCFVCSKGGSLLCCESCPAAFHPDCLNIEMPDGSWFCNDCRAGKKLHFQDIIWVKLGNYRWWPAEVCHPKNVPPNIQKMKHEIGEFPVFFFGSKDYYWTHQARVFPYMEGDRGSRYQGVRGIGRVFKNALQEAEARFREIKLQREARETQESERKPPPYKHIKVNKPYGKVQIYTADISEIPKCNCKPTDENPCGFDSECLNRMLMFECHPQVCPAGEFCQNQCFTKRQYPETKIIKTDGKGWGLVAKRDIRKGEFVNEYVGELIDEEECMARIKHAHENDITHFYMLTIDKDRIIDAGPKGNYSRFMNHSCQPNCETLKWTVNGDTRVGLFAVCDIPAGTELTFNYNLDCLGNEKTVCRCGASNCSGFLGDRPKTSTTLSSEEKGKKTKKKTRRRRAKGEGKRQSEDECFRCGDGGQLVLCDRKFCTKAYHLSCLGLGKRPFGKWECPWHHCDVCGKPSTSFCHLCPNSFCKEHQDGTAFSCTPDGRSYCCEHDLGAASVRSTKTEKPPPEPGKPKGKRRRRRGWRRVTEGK
Format: biochemical.

In assay [2] the target is Heat shock protein HSP 90-alpha (Homo sapiens, UniProt P07900). Format: functional, organism-based.
Assay [3] can be described thus: HepG2 cell cytotoxicity, dose response, cytotoxicity control, ATP luminescence, cherry-pick, activator set 2 (AID 1053143). Format: functional, cell-based.
Assay [4] in a line: A549 cell cytotoxicity, dose response, cytotoxicity control, plate reader, cherry-pick, antagonist series (AID 743412). Format: functional, cell-based.
Assay [5] can be described thus: MC4R antagonists, dose response, counter-screen for LGR2 antagonist project, cell-based, plate reader, cherry pick (AID 743444).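 Note: transfected HEK 293 cells stimulated with alpha-MSH peptide; potency of inhibitors of the alpha-MSH evoked signal.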 Format: functional.
In the next assay the test system is INS1. The assay can be described thus: beta cell apoptosis inhibitors, cytokine rescue, dose response, luminescence, retest (AID 449756).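 Note: cell death triggered by IL-1 beta plus TNF-alpha plus IFN-gamma mixture; protective hits raise ATP signal compared with cytokine alone wells.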 Format: functional, cell-based. As to conditions: Rattus norvegicus.
Assay [6] can be described thus: HEK293 cell cytotoxicity, dose response, cytotoxicity control, plate reader, cherry-picked samples (AID 743446). Format: functional, cell-based.
Assay [7] can be described thus: HepG2 cell cytotoxicity, dose response, cytotoxicity control, plate reader, cherry-pick, antagonist series (AID 743416). Format: functional, cell-based.
Assay [8] in a line: LGR2 antagonists, dose response, cell-based, HEK293, CRE-luciferase reporter, cherry pick, set 2 (AID 743343).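 Note: transfected cells were stimulated with diluted bursicon conditioned medium after compound addition.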 Format: functional.
The target in assay [9] is T2, DNA repair and recombination protein RAD54-like (Homo sapiens, UniProt Q92698).
T2 sequence (Q92698 whole entry): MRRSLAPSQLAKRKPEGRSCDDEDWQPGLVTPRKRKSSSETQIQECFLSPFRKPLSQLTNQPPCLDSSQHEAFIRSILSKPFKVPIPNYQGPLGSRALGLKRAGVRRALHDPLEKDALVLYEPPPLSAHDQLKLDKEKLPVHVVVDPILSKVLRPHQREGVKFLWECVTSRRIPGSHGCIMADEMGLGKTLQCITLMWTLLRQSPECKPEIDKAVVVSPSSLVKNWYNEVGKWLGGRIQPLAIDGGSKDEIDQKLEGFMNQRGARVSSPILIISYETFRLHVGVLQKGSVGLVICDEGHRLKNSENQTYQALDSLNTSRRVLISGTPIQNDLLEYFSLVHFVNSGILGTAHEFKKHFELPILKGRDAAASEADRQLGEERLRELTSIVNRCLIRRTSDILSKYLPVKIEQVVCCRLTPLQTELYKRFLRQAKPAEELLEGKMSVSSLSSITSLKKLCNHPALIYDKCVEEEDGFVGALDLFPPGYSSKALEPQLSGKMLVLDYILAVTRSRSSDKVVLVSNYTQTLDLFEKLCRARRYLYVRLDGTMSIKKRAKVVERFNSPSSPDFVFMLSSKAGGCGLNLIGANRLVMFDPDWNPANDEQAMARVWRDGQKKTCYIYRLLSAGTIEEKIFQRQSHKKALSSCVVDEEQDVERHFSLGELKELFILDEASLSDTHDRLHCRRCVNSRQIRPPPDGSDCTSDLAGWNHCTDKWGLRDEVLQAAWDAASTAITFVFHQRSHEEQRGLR
The assay can be described thus: inhibitors of human RAD54 branch migration, confirmation, biochemical, fluorescence, cherry-picked samples, dose series (AID 651657). Format: functional.

The target in assay [10] is T3, Corticotropin-releasing factor receptor 2/Corticotropin-releasing factor-binding protein (Homo sapiens, UniProt P24387+Q13324).
T3 sequence (Q13324 whole entry): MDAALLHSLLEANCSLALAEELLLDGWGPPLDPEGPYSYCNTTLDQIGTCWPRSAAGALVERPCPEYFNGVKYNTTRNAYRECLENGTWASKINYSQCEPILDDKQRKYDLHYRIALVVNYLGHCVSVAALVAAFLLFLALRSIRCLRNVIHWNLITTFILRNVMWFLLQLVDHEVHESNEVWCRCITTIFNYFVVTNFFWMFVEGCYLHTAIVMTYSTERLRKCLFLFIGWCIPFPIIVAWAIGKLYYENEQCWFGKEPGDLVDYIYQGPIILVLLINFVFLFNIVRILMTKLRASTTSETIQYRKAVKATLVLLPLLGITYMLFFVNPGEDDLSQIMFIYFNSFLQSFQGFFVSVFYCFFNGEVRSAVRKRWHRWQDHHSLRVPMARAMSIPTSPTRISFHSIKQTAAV
T3 sequence (P24387 whole entry): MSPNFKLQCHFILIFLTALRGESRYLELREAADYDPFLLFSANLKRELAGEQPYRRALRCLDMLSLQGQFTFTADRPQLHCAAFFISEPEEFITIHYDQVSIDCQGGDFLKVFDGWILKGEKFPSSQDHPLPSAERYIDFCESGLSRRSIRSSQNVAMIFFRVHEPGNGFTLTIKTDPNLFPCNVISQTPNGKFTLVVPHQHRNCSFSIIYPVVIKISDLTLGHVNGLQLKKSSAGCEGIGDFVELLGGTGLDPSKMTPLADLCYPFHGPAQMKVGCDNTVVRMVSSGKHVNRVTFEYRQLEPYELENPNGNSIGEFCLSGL
The assay can be described thus: activators of CRF receptor 2 with binding protein – uHTS hits, confirmation (AID 602473). Format: functional. As to conditions: read-out: EC50_Mean.

Assay [11] deals with T4, Heat shock factor protein 1 (Mus musculus, UniProt P38532).
T4 sequence (P38532 whole entry): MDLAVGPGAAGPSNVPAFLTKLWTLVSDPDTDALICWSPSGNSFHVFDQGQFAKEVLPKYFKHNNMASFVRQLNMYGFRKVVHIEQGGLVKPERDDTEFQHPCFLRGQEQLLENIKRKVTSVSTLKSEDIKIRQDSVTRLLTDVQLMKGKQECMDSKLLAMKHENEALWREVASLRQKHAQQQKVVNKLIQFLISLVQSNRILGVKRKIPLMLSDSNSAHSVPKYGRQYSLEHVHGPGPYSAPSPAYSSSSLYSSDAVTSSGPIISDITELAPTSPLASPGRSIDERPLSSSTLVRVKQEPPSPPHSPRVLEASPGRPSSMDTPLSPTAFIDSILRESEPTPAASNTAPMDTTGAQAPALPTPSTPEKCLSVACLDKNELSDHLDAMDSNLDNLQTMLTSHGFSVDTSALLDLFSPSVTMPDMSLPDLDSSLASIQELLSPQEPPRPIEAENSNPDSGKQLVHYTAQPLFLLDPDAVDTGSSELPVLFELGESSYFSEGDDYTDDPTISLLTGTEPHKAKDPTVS
The assay can be described thus: inhibition of MG132-induced HSE-luciferase signal, confirmation, cell-based, NIH3T3, luminescence, dose retest (AID 2382).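 Note: NIH3T3 fibroblasts with HSF1-driven luciferase reporter stressed by proteasome inhibitor MG132; luminescence from HSF1-driven luciferase expression after 8 hours of MG132 stress.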 Format: functional.

Assay [12] has as its target T5, Low molecular weight phosphotyrosine protein phosphatase (Homo sapiens, UniProt P24666).
T5 sequence (P24666 whole entry): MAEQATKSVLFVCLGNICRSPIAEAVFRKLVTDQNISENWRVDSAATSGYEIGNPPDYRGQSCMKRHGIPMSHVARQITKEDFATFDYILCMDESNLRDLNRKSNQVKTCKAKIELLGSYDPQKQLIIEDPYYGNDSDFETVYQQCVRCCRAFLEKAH
Format: functional. As to conditions: read-out: IC50_Mean.

The target of assay [13] is T5, Low molecular weight phosphotyrosine protein phosphatase. Format: functional. Particulars: read-out: IC50_Mean. The source holds these as a separate data set.
In assay [14] the target is T3, Corticotropin-releasing factor receptor 2/Corticotropin-releasing factor-binding protein. The experiment in a line: Dose Response confirmation of uHTS hits for small molecule antagonists of the CRF-binding protein and CRF-R2 receptor complex. Particulars: read-out: IC50_Mean. Format: functional.
Assay [15] concerns the target T6, Probable nicotinate-nucleotide adenylyltransferase (Staphylococcus aureus (strain N315), UniProt P65502). Format: functional, Staphylococcus aureus subsp. aureus N315. Particulars: read-out: IC50_Mean.
The target of assay [16] is T6, Probable nicotinate-nucleotide adenylyltransferase. Format: functional, Staphylococcus aureus subsp. aureus N315.
The target of assay [17] is T7, Trace amine-associated receptor 1 (Homo sapiens, UniProt Q96RJ0).
T7 sequence (Q96RJ0 whole entry): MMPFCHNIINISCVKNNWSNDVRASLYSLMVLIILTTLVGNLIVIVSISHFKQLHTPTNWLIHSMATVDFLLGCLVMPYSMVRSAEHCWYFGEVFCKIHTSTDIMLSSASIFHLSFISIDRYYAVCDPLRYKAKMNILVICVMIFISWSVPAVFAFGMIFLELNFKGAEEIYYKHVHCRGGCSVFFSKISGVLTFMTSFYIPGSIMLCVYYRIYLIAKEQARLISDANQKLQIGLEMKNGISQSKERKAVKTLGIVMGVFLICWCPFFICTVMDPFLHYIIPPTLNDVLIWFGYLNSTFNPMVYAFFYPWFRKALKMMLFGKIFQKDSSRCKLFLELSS
The experiment in a line: Counterscreen for agonists of the human trace amine associated receptor 1 (hTAAR1): Fluorescence-based cell-based high throughput dose response assay to identify hTAAR1 agonist that also desensitize TAAR1 receptor response. Format: functional.

Assay [18] can be described thus: cells. Format: functional, cell-based.
A short description of assay [19]: cells. Format: functional, cell-based. The source holds these as a separate data set.
For assay [20], the target named is T7, Trace amine-associated receptor 1. The experiment in a line: Fluorescence-based cell-based high throughput dose response assay to identify agonists of the human trace amine associated receptor 1 (TAAR1). Format: functional.
Assay [21] is described as follows: Luminescence-based cell-based high throughput dose response assay to identify activators of the DAF-12 from the parasite S. stercoralis (ssDAF-12). Format: functional.

Consider nine compounds from ChEMBL document CHEMBL1201862, “PubChem BioAssay data set” (2004).

Activity calls are given as the source filed them. Some results are limits rather than exact numbers.

T6 sequence (P65502 whole entry): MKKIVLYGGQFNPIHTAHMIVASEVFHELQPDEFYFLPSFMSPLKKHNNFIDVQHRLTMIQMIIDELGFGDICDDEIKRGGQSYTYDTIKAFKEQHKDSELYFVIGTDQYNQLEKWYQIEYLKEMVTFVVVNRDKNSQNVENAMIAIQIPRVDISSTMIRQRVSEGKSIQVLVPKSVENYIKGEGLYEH

Take `CC1=NOC(=O)/C1=C\c1ccc(-c2ccc(Br)cc2)o1`: the values for the AC50 in assay [1] and in [2] were > 20 µM (inactive) and 4.12 µM (active), respectively.
With `CC(=O)Nc1sc2c(c1-c1nc3ccccc3s1)CN(C(C)C)CC2`, the AC50 was 12.5 µM (active) in assay [3]; 2.35 µM (active) in assay [4]; 23.2 µM (active) in assay [5]; 0.752 µM (active) with INS1; 25.7 µM (active) in assay [6]; 3.52 µM (active) in [7]. The concentration at half-maximal activity (AC50) was 27.7 µM (active) in assay [8] and 0.715 µM (active) in assay [9].
For `Cc1[nH]c(=O)c(C#N)cc1-c1csc(-c2ccccc2)n1`, the EC50 in [10] was > 53 µM (inactive); in assay [11], > 195 µM (not active). Further, the IC50 in [12] was 27 µM (inactive); in assay [13], 67.8 µM (inactive); in assay [14], > 47.1 µM (inactive).
Consider `CC1CCCN(c2nc3ccsc3c(=O)s2)C1` (stereo not drawn), for which the AC50 in assay [3] was > 52 µM (inactive).
For `Oc1ccccc1CNc1cccc2cccnc12`, the AC50 in [1] was 14.4 µM (active).
On to `Cc1ccc(-c2cc(-c3ccccc3Cl)c(C#N)c(N)n2)o1`, for which the IC50 is 7.76 µM (active) in assay [15] and 5.05 µM (active) in [16].
`COc1ccc(C(c2nnnn2CCc2ccccc2)N2CCN(C3CCCC3)CC2)cc1` (stereo not drawn): the IC50 is 8.17 µM (active) in [17] and > 29.9 µM (inactive) in “cells [19]”. The EC50 in the assay “cells [18]” is > 29.9 µM (inactive); in assay [20], 1.62 µM (active).
As for `O=[N+]([O-])c1cc(Cl)ccc1-c1nc(-c2ccccc2)no1`, in assay [21], the IC50 was > 67.6 µM (inactive).
`O=C(N[C@@H](Cc1cccnc1)C(=O)N1CCC[C@H]1C(=O)NCCc1ccccc1Cl)C1CC1`: the IC50 is 13.6 µM (inactive) in assay [17] and > 29.9 µM (inactive) in “cells [19]”. Moreover, the EC50 in “cells [18]” is > 29.9 µM (inactive); in assay [20], > 9.98 µM (active).
